The text below walks through data of patent US20250257034A1, “INDOLE DERIVATIVES AS SEROTONERGIC AGENTS USEFUL FOR THE TREATMENT OF DISORDERS RELATED THERETO” (priority 2023, published 2025).

This assay addresses T1, human 5-HT1A receptor (Homo sapiens, UniProt P08908).
T1 sequence (P08908 1-422): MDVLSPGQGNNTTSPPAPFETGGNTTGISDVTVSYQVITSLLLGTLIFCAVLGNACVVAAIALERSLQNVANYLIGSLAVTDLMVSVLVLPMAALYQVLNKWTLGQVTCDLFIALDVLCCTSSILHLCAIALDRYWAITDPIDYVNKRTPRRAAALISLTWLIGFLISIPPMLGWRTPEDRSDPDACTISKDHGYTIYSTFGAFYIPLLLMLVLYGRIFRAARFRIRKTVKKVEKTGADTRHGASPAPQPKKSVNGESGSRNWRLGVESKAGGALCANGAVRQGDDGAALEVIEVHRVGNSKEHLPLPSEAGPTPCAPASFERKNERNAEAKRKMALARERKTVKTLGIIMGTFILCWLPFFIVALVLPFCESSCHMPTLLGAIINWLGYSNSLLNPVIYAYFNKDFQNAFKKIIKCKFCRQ
The experiment in a line: Human 5-HT1A functional FLIPR assay (agonist mode). The assay is classed as cell-based. On the set-up: expressed in transfected cells; host or cells: HTR1A&Gα15-CHO. Here is the method:
The potential excitatory effects of compounds targeting on 5-hydroxytryptamine receptor 1A (5-HT1A) under agonist mode was assessed.
HTR1A&Gα15-CH0 cells were cultured in DMEM/F12 medium containing 10% dialyzed FBS, 1×penicillin-streptomycin and 600 μg/mL Hygromycin B. The cells were passaged about three times a week, maintained between ˜30% to ˜90% confluence.
1. The cell culture medium (DMEM/F12 medium containing 10% dialyzed FBS, 1×penicillin-streptomycin and 600 μg/mL Hygromycin B), TrypLE™ Express and DPBS was warmed to R.T. in advance.
2. The cell culture medium was removed from flask. Washed cells with DPBS.
3. 1 mL TrypLE™ Express was added to the flask, mixed well by gentle shaking and cells were incubated at 37° C. for a few minutes.
4. The cells were checked for morphological change under microscope, the digestion was stopped by adding 2 mL cell culture medium to the flask when most of cells turned to round.
5. The cell suspension was transferred into a 15 mL centrifuge tube, and then centrifuged at 1,200 rpm for 5 minutes.
6. The supernatant was removed. The cell pellets were resuspended with 2 mL cell culture medium.
7. The cell density was counted using a cell counter.
8. Cells were diluted to 4×10^5/mL with cell culture medium.
9. 30 μL/well cell suspensions were added into a 384-well cell plate (the cell density was 12,000 cells/well).
10. The cell plate was incubated overnight at 37° C., 5% (v/v) CO2.
1. On the day of experiments, culture medium was removed from the cell plate.
2. 10 μL of assay buffer (20 mM HEPES, in 1x HBSS, pH 7.4) was added to each well of the cell plate.
3. 2×dye solution was prepared following the manufacturer's instruction of the FLIPR® Calcium 6 assay kit: • i. The dye was diluted with assay buffer. • ii. probenecid was added to the final concentration of 5 mM. • iii. Vortexed vigorously for I-2 minutes, adjust pH to 7.4.
4. 10 μL of 2×dye solution was added to each well of the cell plate.
5. The cell plate was placed on plate shaker, followed by shaking at 600 rpm for 2 minutes.
6. The plate was incubated at 37° C. for 2 hours followed by an additional 15-minute incubation at 25° C.
1. Serotonin was prepared to the concentration of 10 mM with DMSO, 3-folds serial dilutions were performed with DMSO.
2. Prepared the test compound to the concentration of 10 mM with DMSO, preform 3-folds serial dilutions with DMSO.
3. The compounds were added to a 384-well compound source plate.
4. 90 nL/well of serial diluted compounds were transferred from source plate to a 384-well compound plate by using an Echo.
5. 30 μL/well of assay buffer was added to the compound plate.
6. The plate was mixed on-plate shaker for 2 minutes.
1. After the cells incubated with dye solution, the cell plate, compound plate containing 3×compounds and F LIP R tips were placed into F LIP R.
2. 10 μL of 3×compounds were transferred from the compound plate to the cell plate by F LIP R.
3. The plate was read for 160 sec with 1 sec interval to obtain the data of agonist mode.
1. The normalized fluorescence reading (RFU) was calculated as shown below, wherein Fmax and Fmin stand for maximum and minimum of calcium signal during defined time window:
2. EC50 was calculated by fitting RFU against log of compound concentrations with Hill equation using XLfit.
HTR1A&Gα15-C H0 cells were cultured in DMEM/F 12 medium containing 10% dialyzed FBS, 1x penicillin-streptomycin and 600 μg/mL Hygromycin B. The cells were passaged about three times a week, maintained between ˜30% to ˜90% confluence.
1. The cell culture medium (DMEM/F 12 medium containing 10% dialyzed FBS, 1x penicillin-streptomycin and 600 μg/mL Hygromycin B), TrypLE™ Express and DPBS was warmed to R.T. in advance.
7. The cell density was counted using cell counter.
9. 30 μL/well cell suspensions were added into a 384-well cell plate (The cell density was 12,000 cells/well).
3. 2×dye solution was prepared following the manufacture's instruction of the F LIP R® Calcium 6 assay kit: • i.

Like-named read-outs stand apart in the source and are kept apart here.

The term EC50 denotes the concentration needed to bring the measured effect to its halfway point. For the compound `COc1ccc2[nH]cc(CCN3CC[C@@H](OC)C3)c2c1` [(R) I-66, (R)-5-methoxy-3-(2-(3-methoxypyrrolidin-1-yl)ethyl)-1H-indole], the EC50 was found to be 977 nM. Further, the “RFU@10 μM” value (RFU=Fmax−Fmin (Table 47)) is 3,690 RFU.

Take `COc1ccc2[nH]cc(CCN3CC[C@@H](OC(F)F)C3)c2c1` [(R) I-67, (R)-3-(2-(3-(Difluoromethoxy)pyrrolidin-1-yl)ethyl)-5-methoxy-1H-indole]: the EC50 is 1600 nM. In addition, the “RFU@10 μM” value (RFU=Fmax−Fmin (Table 47)) was 3,988 RFU.

Compound `COc1ccc2[nH]cc(CCN3CC[C@H](OC(F)F)C3)c2c1` [(S) I-67, (S)-3-(2-(3-(Difluoromethoxy)pyrrolidin-1-yl)ethyl)-5-methoxy-1H-indole] displayed an EC50 of 187 nM. The “RFU@10 μM” value (RFU=Fmax−Fmin (Table 47)) was 3,930 RFU.

Take `[2H]C([2H])([2H])N(CCc1c[nH]c2ccc(SC)cc12)C([2H])([2H])[2H]` [Compound I-1, N,N-Bis(methyl-d3)-2-(5-(methylthio)-1H-indol-3-yl)ethan-1-amine]: a half-maximal response (EC50) required 928 nM. Besides, the “RFU@10 μM” value (RFU=Fmax−Fmin (Table 18)) is 2,858 RFU.

`CCN(CC)CCc1c[nH]c2ccc(SC)cc12` [Compound I-12, N,N-Diethyl-2-(5-(methylthio)-1H-indol-3-yl)ethan-1-amine] came in with an EC50 of 675 nM. Where the note is “RFU=Fmax−Fmin (Table 18)”, the “RFU@10 μM” value was 3,735 RFU.

With `CCN(C)CCc1c[nH]c2ccc(SC)cc12` [Compound I-13, N-Ethyl-N-methyl-2-(5-(methylthio)-1H-indol-3-yl)ethan-1-amine], the EC50 turned out to be 693 nM. Besides, the “RFU@10 μM” value (RFU=Fmax−Fmin (Table 18)) was 4,279 RFU.

The compound `CSc1ccc2[nH]cc(CCN(C(C)C)C(C)C)c2c1` [Compound I-17, N-Isopropyl-N-(2-(5-(methylthio)-1H-indol-3-yl)ethyl)propan-2-amine] had an EC50 of 3380 nM. Under “RFU=Fmax−Fmin (Table 18)”, the “RFU@10 μM” value was 2,289 RFU.

As for `CSc1ccc2[nH]cc(CCN(C)C(C)C)c2c1` [Compound I-19, N-Methyl-N-(2-(5-(methylthio)-1H-indol-3-yl)ethyl)propan-2-amine], a half-maximal effect (EC50) was put at 3870 nM. In addition, the “RFU@10 μM” value (RFU=Fmax−Fmin (Table 18)) is given as 2,161 RFU.

As for `COc1ccc2[nH]cc(CCN(C)CCOC(F)F)c2c1` [Compound I-71, 2-(Difluoromethoxy)-N-(2-(5-methoxy-1H-indol-3-yl)ethyl)-N-methylethan-1-amine], where the note is “RFU=Fmax−Fmin (Table 47)”, the “RFU@10 μM” value was 3,087 RFU. For the same compound, the EC50 (FLIPR calcium, agonist mode, HTR1A&Gα15-CHO cells (Table 47), read-out: h5-HT1A, EC50) turned out to be 1840 nM.

In the case of `CN(C)CCc1c[nH]c2ccc(OCCOC(F)F)cc12` [Compound I-128, 2-(5-(2-(Difluoromethoxy)ethoxy)-1H-indol-3-yl)-N,N-dimethylethan-1-amine], under “RFU=Fmax−Fmin (Table 47)”, the “RFU@10 μM” value is listed as 314 RFU.

On to `CN(CCOC(F)F)CCc1c[nH]c2ccccc12` [Compound I-130, N-(2-(1H-Indol-3-yl)ethyl)-2-(difluoromethoxy)-N-methylethan-1-amine], for which, where the note is “RFU=Fmax−Fmin (Table 47)”, the “RFU@10 μM” value stood at 163 RFU.

On to `CN(C)CCc1c[nH]c2ccccc12` [DMT], for which the “RFU@10 μM” value by setting is: (RFU=Fmax−Fmin (Table 18)) 204 RFU; (RFU=Fmax−Fmin (Table 47)) 204 RFU.
